This is an account of results in US5081117A (priority 1989, dated 1992).

Where a name gives a salt, the structure may show the parent alone.

For the experiment, the target named is T1, acetylcholinesterase (AChE), rat striatum (Rattus norvegicus, UniProt P37136).
T1 construct: corpora striata dissected free, weighed and homogenized in 19 volumes; from tissue; host or cells: homogenate of corpora striata of male Wistar rats
T1 sequence (P37136 32-614): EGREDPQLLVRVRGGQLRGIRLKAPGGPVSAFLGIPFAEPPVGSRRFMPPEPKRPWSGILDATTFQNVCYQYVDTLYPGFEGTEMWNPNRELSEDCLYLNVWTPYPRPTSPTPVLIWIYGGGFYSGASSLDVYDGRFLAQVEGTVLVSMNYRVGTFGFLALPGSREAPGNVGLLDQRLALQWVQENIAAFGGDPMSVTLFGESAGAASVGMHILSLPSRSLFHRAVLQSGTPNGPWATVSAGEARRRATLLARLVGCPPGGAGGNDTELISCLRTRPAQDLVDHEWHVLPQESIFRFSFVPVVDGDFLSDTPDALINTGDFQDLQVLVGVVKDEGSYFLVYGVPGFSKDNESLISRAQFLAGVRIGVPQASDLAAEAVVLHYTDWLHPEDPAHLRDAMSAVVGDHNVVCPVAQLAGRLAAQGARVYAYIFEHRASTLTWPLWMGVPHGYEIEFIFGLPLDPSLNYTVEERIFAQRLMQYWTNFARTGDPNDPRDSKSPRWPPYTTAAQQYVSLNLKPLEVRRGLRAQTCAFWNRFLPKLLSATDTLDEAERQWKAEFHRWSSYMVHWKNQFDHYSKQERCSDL
Nature of the experiment: In vitro inhibition of acetylcholinesterase activity in rat striatum (modified Ellman method). In kind it is biochemical, Male Wistar rats. The source says: Cholinesterases are found throughout the body, both in the brain and in serum. However, only brain acetylcholinesterase (AChE) distribution is correlated with central cholinergic innervation. […] We have determined in vitro inhibition of acetylcholinesterase activity in rat striatum according to the method described below.
In Vitro Inhibition of Acetylcholinesterase Activity in Rat Striatum
The method described below was used in this invention for assaying anticholinesterase activity. This is a modification of the method of Ellman et al., Biochem. Pharmacol. 7, 88 (1961).
1. 0.05M Phopsphate buffer, pH 7.2
(a) 6.85 g NaH2 PO4 .cndot.H2 O/100 ml distilled H2 O
(c) add (a) to (b) until pH reaches 7.2
(a) 9.9 mg 5,5-dithiobisnitrobenzoic acid (DTNB) (0.25 mM)
(b) 99 mg s-acetylthiocholine chloride (5 mM)
(c) q.s. to 100 ml with 0.05M phosphate buffer, pH 7.2 (reagent 1)
3. For most assays, a 2 mM stock solution of the test drug is made up in a suitable solvent and serially diluted such that the final concentration in the preincubation step ranges from 10^-3 to 10^-6 M. Different concentrations may be used depending on the potency of the drug.
Male Wistar rats are decapitated, brains rapidly removed, corpora striata dissected free, weighed and homogenized in 19 volumes (approximately 7 mg protein/ml) of 0.05M phosphate buffer, pH 7.2 using a Potter-Elvehjem homogenizer. A 50 microliter aliquot of the homogenate is added to 50 microliter vehicle of various concentrations of the test drug and preincubated for 10 minutes at room temperature.
1. For routine IC50 determinations the Abbott Bichromatic Analyzer, ABA-100, is used to determine acetylcholinesterase activity.
Incubation temperature: 30° C.
Reaction direction: down:endpoint
Syringe plate: 1:101 dilution
Following the 10 minute preincubation of the tissue (enzyme) with the inhibitor, the samples are mixed with the substrate chromogen buffer by the ABA-100. Using the indicated instrument settings the ABA-100 automatically reads the color reaction and prints out the results in enzyme units after 15 minutes.
2. The enzyme activity can also be measured with a Gilford 250 spectrophotometer. This method is used for more accurate kinetic measurements.
Reagents are added to the reference and sample side of a split curvette as follows:
The unhibited activity of the enzyme (tissue homogenate) is first determined. Test drugs are made up in a suitable solvent and added in suitable dilutions to the buffer vehicle. The reaction rate is determined by the slope of the recorded absorbance change. The actual rate (moles/liter/min) can be calculated as described in the following formula
rate (moles/liter/min)=slope/(1.36×10^4)
In general terms: In Ellman's method for cholinesterases, released thiocholine reacts with DTNB.
As a reminder, the IC50 is the midpoint of a concentration-inhibition curve. A high value points to weaker potency in that assay. Turning to `CN1CC[C@@]2(C)c3ccc(OC(=O)NC4CCCCC4)cc3N(C)[C@@H]12` (relative stereo) [cis-(±)-1,2,3,3a,8,8a-Hexahydro-1,3a,8-trimethylpyrrolo[2,3-b]indol-6-ylcyclohexyl carbamate salicylate], the IC50 was 5.5 µM.
`CN1CC[C@@]2(C)c3c(OC(=O)NC4CCCCC4)cccc3N(C)[C@@H]12` (relative stereo) [cis-(±)-1,2,3,3a,8,8a-Hexahydro-1,3a,8-trimethylpyrrolo[2,3-b]indol-4-ylcyclohexyl carbamate fumarate] showed a 50% inhibitory concentration (IC50) of 0.55 µM.
As for `CNC(=O)Oc1cccc2c1[C@]1(C)CCN(C)[C@@H]1N2C` (relative stereo) [cis-(±)-1,2,3,3a,8,8a-Hexahydro-1,3a,8-trimethylpyrrolo[2,3-b]indol-4-ylmethylcarbamate fumarate], the figure is 0.06 µM.
The result for `CNC(=O)Oc1cc2c(cc1Br)[C@]1(C)CCN(C)[C@@H]1N2C` (relative stereo) [cis-(±)-5-Bromo-1,2,3,3a,8,8a-hexahydro-1,3a,8-trimethylpyrrolo[2,3-b]indol-6-yl methyl carbamate sesquifumarate] reads 0.013 µM; that for `CNC(=O)Oc1ccc2c(c1)N(C)[C@H]1N(C)CC[C@@]21C` (relative stereo) [cis-(±)-1,2,3,3a,8,8a-Hexahydro-1,3a,8-trimethylpyrrolo[2,3-b]indol-6-ylmethylcarbamate salicylate], 0.23 µM.
